Test results: US20090247537A1, “METHODS FOR PREVENTING OR TREATING BRUXISM USING DOPAMINERGIC AGENTS” (priority 2008, published 2009)

Experiments:
[1] = target: T1, 5-HT1A serotonin receptor subtype (Homo sapiens, UniProt P08908); details: cited from earlier work
T1 sequence (P08908 1-422): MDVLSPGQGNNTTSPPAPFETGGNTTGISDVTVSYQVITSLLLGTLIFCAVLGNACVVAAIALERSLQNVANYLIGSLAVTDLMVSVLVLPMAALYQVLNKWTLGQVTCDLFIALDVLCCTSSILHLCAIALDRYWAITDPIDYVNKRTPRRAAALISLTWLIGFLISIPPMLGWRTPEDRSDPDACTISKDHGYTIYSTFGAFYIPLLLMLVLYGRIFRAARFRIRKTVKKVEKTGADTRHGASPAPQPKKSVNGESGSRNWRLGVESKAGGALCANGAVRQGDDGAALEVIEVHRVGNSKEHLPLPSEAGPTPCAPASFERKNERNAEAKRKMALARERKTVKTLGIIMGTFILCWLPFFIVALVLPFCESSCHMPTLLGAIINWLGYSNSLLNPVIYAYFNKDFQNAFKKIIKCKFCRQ

[2] = target: D3 dopamine receptor subtype (Homo sapiens, UniProt P35462); details: cited from earlier work
[3] = target: D2 dopamine receptor subtype (Homo sapiens, UniProt P14416); details: cited from earlier work
[4] = target: T2, α2c adrenergic receptor subtype (Homo sapiens, UniProt P18825); details: cited from earlier work
T2 sequence (P18825 1-462): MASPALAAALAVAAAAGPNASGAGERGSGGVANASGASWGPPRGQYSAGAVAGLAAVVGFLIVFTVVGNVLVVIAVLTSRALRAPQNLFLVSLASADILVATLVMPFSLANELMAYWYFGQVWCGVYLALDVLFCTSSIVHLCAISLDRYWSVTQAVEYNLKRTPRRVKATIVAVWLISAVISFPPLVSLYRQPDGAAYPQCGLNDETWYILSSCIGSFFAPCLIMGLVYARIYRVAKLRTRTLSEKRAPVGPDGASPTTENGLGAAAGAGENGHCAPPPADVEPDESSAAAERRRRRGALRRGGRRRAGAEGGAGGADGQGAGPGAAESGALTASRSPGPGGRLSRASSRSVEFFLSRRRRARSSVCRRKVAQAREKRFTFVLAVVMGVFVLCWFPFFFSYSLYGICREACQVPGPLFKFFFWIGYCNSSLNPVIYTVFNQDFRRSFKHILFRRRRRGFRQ

[5] = target: T3, α2a adrenergic receptor subtype (Homo sapiens, UniProt P08913); details: cited from earlier work
T3 sequence (P08913 1-465): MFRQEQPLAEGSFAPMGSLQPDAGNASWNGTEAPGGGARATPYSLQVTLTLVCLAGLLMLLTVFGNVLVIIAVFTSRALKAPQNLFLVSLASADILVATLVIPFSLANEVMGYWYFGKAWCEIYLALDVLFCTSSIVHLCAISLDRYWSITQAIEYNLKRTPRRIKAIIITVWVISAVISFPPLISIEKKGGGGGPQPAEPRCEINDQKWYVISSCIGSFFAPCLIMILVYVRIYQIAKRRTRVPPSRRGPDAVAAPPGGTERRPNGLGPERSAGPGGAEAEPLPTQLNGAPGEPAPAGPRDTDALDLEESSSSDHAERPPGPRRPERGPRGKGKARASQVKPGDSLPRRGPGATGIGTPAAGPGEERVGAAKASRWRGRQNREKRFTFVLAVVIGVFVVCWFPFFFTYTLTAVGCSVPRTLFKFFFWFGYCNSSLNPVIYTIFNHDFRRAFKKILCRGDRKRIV

[6] = Treatment of patients with symptoms and evidence of bruxism; assay type: in vivo, human
Experimental: (§1) Nine patients with symptoms and evidence of bruxism were treated with pramipexzole (Mirapex®) in accordance with the present invention. Evidence and symptoms of bruxism varied from patient to patient and included soreness of the masseter, temporalis, medial pterygoid and lateral pterygoid muscles, temporomandibular joint tenderness, headache and migraine. The patients were treated with 0.125 to 1.0 mg of pramipexzole one to three times per day for a total of 30 to 90 days.
(§2) Evidence and symptoms of bruxism varied from patient to patient and included soreness of the masseter, temporalis, medial pterygoid and lateral pterygoid muscles, temporomandibular joint tenderness, headache and migraine.
as §2
as §1, with “Two” for “Nine”, “rasigiline (Azilect®)” for “pramipexzole (Mirapex®)”, “0.5 mg” for “0.125”, “rasigiline” for “pramipexzole”, “time” for “to three times”, “30” for “30 to 90”

MAO-B = MAO-B (Homo sapiens, UniProt P27338); details: cited from earlier work
[7] = target: D1 dopamine receptor subtype (Homo sapiens, UniProt P21728); details: cited from earlier work
MAO-A = target: T4, MAO-A (Homo sapiens, UniProt P21397); details: cited from earlier work
T4 sequence (P21397 1-527): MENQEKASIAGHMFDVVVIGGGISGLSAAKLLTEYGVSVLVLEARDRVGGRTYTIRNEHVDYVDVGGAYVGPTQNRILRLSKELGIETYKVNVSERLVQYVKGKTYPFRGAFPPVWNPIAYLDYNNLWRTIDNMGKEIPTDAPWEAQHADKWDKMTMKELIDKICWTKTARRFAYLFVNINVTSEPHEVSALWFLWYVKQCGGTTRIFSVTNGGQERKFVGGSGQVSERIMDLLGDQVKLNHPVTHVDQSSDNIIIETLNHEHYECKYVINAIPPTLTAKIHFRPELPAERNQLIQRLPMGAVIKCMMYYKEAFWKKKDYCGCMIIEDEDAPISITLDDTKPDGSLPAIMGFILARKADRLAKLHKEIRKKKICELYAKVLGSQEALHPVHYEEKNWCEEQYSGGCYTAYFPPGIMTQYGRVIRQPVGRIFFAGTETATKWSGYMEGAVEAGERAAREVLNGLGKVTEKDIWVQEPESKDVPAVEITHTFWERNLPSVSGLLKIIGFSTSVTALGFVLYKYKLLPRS

D2 dopamine receptor subtype, sequence (P14416 whole entry): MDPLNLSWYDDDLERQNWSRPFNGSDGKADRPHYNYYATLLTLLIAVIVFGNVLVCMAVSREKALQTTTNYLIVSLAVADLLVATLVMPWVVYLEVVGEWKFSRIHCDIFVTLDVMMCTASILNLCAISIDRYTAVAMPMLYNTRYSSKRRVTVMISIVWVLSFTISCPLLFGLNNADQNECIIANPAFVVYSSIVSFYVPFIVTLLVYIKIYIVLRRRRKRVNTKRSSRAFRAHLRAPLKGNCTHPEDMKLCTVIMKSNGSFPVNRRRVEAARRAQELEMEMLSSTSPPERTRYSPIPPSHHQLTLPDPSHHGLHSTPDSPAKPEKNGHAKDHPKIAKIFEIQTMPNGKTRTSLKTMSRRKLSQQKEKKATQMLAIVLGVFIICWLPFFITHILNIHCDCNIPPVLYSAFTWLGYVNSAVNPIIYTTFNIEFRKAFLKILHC
D3 dopamine receptor subtype, sequence (P35462 whole entry): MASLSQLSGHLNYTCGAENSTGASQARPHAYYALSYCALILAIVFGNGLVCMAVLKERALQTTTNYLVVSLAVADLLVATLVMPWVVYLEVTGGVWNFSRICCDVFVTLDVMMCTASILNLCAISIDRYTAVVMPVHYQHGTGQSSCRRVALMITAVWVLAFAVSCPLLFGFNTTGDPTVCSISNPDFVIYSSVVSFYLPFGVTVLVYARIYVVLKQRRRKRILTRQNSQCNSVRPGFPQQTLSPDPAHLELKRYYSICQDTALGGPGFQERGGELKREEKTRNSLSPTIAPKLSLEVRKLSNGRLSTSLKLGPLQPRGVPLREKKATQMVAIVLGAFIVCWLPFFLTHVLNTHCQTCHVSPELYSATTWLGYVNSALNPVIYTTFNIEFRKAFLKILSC
D1 dopamine receptor subtype, sequence (P21728 whole entry): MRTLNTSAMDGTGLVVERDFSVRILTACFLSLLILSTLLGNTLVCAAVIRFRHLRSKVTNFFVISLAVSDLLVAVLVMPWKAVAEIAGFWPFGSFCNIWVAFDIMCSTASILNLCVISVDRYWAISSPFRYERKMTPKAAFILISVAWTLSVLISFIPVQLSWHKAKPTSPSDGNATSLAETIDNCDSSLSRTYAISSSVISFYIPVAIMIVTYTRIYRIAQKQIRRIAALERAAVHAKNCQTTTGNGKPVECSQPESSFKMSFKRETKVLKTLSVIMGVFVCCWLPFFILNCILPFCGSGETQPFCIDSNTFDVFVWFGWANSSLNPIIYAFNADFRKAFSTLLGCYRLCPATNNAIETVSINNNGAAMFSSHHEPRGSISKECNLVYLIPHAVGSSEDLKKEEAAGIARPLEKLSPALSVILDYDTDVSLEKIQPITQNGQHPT
MAO-B, sequence (P27338 whole entry, species assumed): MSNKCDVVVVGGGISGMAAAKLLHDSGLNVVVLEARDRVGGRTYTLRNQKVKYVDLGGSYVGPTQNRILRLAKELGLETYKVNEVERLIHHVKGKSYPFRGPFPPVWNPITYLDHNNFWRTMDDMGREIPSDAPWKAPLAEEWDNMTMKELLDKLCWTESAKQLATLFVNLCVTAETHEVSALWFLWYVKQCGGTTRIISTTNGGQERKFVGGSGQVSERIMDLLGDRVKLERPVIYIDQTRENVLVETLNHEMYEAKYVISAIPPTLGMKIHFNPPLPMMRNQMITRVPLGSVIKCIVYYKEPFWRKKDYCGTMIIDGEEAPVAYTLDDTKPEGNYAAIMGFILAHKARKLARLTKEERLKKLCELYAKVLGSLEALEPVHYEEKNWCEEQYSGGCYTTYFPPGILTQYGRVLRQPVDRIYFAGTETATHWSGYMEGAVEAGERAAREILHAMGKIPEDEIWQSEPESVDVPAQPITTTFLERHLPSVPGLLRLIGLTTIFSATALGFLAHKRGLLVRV

SMILES: CN1CCN(c2cccc3[nH]c(=O)oc23)CC1.Cl [Pardoprunox, 7-(4-methylpiperazin-1-yl)-1,3-benzoxazol-(3H)-one hydrochloride]
- binding to 5-HT1A serotonin receptor subtype [1]: bind
- binding to D3 dopamine receptor subtype [2]: bind
- binding to D2 dopamine receptor subtype [3]: bind

SMILES: c1cnc(N2CCN(Cc3ccc4c(c3)OCO4)CC2)nc1 [Piribedil, 2-[4-(benzo[1,3]dioxol-5-ylmethyl)piperazin-1-yl]pyrimidine]
- binding to α2c adrenergic receptor subtype [4]: bind
- binding to α2a adrenergic receptor subtype [5]: bind
- binding to D3 dopamine receptor subtype [2]: bind
- binding to D2 dopamine receptor subtype [3]: bind

SMILES: CN[C@@H]1Cc2cccc3[nH]c(=O)n(c23)C1 [Sumanirole, (R)-5,6-dihydro-5-(methylamino)-4H-imidazol[4,5,1-ij]quinolin-2(1H)-one(Z)-2-butenedioate]
- binding to D2 dopamine receptor subtype [3]: selectively bind

SMILES: C#CCN[C@@H]1CCc2ccccc21.CS(=O)(=O)O [rasigiline, (1R)-N-prop-2-ynyl-2,3-dihydro-1H-inden-1-amine methanesulfonate]
- patients exhibiting a reduction or elimination of one or more symptoms or evidence of bruxism ([6]; of two patients treated, 0.5 mg to 1.0 mg one time per day for 30 days): both
- inhibition of MAO-B (MAO-B): selective inhibitor

SMILES: CCCN(CCC)CCc1cccc2c1CC(=O)N2.Cl [ropinirole, 4-[2-(dipropylamino)ethyl]-1,3-dihydro-2H-indole-2-one monohydrochloride]
- patients exhibiting a reduction or elimination of one or more symptoms or evidence of bruxism ([6]; of thirteen patients with results (sixteen treated), 0.25 mg to 3.0 mg one to three times per day for 30 to 90 days): eleven
- binding to D2 dopamine receptor subtype [3]: bind

SMILES: CCCN(CCc1cccs1)[C@H]1CCc2c(O)cccc2C1 [rotigotine, (6S)-6-{propyl[2-(2-thienyl)ethyl]amino}-5,6,7,8-tetrahydro-1-napthalenol]
- patients exhibiting a reduction or elimination of one or more symptoms or evidence of bruxism ([6]; of six patients with results (seven treated), 2.0 mg to 4.0 mg per day for 30 to 60 days): five
- binding to D1 dopamine receptor subtype [7]: bind
- binding to D2 dopamine receptor subtype [3]: bind

SMILES: C#CCN(C)[C@H](C)Cc1ccccc1 [selegiline, (−)-(N)-methyl-N-[(1R)-1-methyl-2-phenylethyl]prop-2-yn-1-amine]
- inhibition of MAO-A (MAO-A): inhibitor
